# Columns and labels:
# Substance-P receptor = Substance-P receptor (Cavia porcellus, UniProt P30547); assay: Neurokinin (NK1) receptor antagonistic activity was evaluated.; format: functional
# Cavia porcellus = assay: Inhibitory activity of substance P-induced bronchoconstriction in guinea pigs upon intravenous administration was evaluated.; format: functional; settings: read-out: ID50 (the source's name)
# Sequence of Substance-P receptor (P30547 whole entry): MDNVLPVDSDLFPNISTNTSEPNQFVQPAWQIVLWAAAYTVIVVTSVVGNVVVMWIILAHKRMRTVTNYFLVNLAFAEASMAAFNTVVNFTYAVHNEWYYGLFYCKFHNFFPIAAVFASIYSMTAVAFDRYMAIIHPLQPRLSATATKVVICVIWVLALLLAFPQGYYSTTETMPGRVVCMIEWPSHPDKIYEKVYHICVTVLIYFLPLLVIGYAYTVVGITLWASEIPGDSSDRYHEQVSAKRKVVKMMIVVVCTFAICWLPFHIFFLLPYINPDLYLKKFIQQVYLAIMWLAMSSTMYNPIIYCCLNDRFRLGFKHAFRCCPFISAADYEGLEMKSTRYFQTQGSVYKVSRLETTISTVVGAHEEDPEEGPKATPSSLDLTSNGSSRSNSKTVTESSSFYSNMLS
IC50 (Substance-P receptor),Structure (SMILES),ED50 (Cavia porcellus)
18 nM,CC(C)Oc1cccc(CC(=O)N2CCCC(CCN3CCC4(CC3)c3ccccc3C[S+]4[O-])(c3ccc(Cl)c(Cl)c3)C2)c1 (configuration not stated),
54 nM,CC(C)Oc1cccc(CC(=O)N2CCCC(CCN3CCC4(CC3)NC(=O)Cc3ccccc34)(c3ccc(Cl)c(Cl)c3)C2)c1 (configuration not stated),
2 nM,CC(C)Oc1cccc(CC(=O)N2CCCC(CC[N+]3(C)CCC4(CC3)NCCc3ccccc34)(c3ccc(Cl)c(Cl)c3)C2)c1.[I-] (configuration not stated),0.049 mg/kg
16 nM,CC(C)Oc1cccc(CC(=O)N2CCCC(CC[N+]3(Cc4ccccc4)CCC4(CC3)NCCc3ccccc34)(c3ccc(Cl)c(Cl)c3)C2)c1 (configuration not stated),
16 nM,CC(C)Oc1cccc(CC(=O)N2CCCC(CCN3CCC4(CC3)OCc3ccccc34)(c3ccc(Cl)c(Cl)c3)C2)c1 (configuration not stated),
4.8 nM,CC[N+]1(CCC2(c3ccc(Cl)c(Cl)c3)CCCN(C(=O)Cc3cccc(OC(C)C)c3)C2)CCC2(CC1)NCCc1ccccc12 (configuration not stated),
31 nM,CC(C)Oc1cccc(CC(=O)N2CCCC(CCN3CCC4(CC3)NCCc3ccccc34)(c3ccc(Cl)c(Cl)c3)C2)c1 (configuration not stated),

# The next lines start with the molecule.
Structure (SMILES),IC50 (Substance-P receptor),ED50 (Cavia porcellus)
CC(C)Oc1cccc(CC(=O)N2CCCC(CCN3C4CCC3CC3(C4)OCc4ccccc43)(c3ccc(Cl)c(Cl)c3)C2)c1 (configuration not stated),105 nM,
CC(C)Oc1cccc(CC(=O)N2CCCC(CC[N+]3(C)CCC4(CC3)c3ccccc3C[S+]4[O-])(c3ccc(Cl)c(Cl)c3)C2)c1 (configuration not stated),6.3 nM,
CN(CC(CCN1CCC2(CC1)OCc1ccccc12)c1ccc(Cl)c(Cl)c1)C(=O)c1ccccc1 (configuration not stated),710 nM,
CC(C)Oc1cccc(CC(=O)N2CCCC(CC[N+]3(C)CCC4(CC3)NC(=O)Cc3ccccc34)(c3ccc(Cl)c(Cl)c3)C2)c1.[I-] (stereo in doubt; 5ba),1.9 nM,0.024 mg/kg
CC(C)Oc1cccc(CC(=O)N2CCCC(CC[N+]3(C)CCC4(CC3)NC(=O)Cc3ccccc34)(c3ccc(Cl)c(Cl)c3)C2)c1 (stereo in doubt; 5bb),35 nM,
CN(CC(CCN1CCC2(CC1)NCCc1ccccc12)c1ccc(Cl)c(Cl)c1)C(=O)c1ccccc1 (configuration not stated),58 nM,
CC(C)Oc1cccc(CC(=O)N2CCCC(CC[N+]34CCC(c5ccccc5)(CC3)CC4)(c3ccc(Cl)c(Cl)c3)C2)c1.[Cl-] (racemic),0.31 nM,0.019 mg/kg
